Experimental data from patent publication US12544395B2, “Combination compositions comprising a beta-lactamase inhibitor and uses thereof” (priority 2018, dated 2026).
Converted amounts (≈) assume the structure as drawn. “And” between values parts separate entries of the source, which are not always exact repeats. Identical values can stand only once.

Key:
[1] = Metabolic stability in plasma; format: in vitro ADME, CD-1 mouse; conditions: CD-1, plasma; Mouse; test conc. 3 μM
[2] = Metabolic stability in liver S9; format: in vitro ADME, CD-1 mouse; conditions: Mouse, test conc. 3 μM
[3] = Metabolic stability in intestinal S9; format: in vitro ADME, CD-1 mouse; conditions: Mouse, test conc. 3 μM
[4] = Metabolic stability in intestinal S9; format: in vitro ADME, beagle dog; conditions: Dog, test conc. 3 μM
[5] = Metabolic stability in liver S9; format: in vitro ADME, beagle dog; conditions: Dog, test conc. 3 μM
[6] = Metabolic stability in intestinal S9; format: in vitro ADME, cynomolgus monkey; conditions: Monkey, test conc. 3 μM
[7] = Metabolic stability in intestinal S9; format: in vitro ADME, Sprague-Dawley rat; conditions: Rat, test conc. 3 μM
[8] = Metabolic stability in plasma; format: in vitro ADME; conditions: Sprague-Dawley, Rat, test conc. 3 μM
[9] = Metabolic stability in liver S9; format: in vitro ADME, Sprague-Dawley rat; conditions: Rat, test conc. 3 μM
[10] = Metabolic stability in intestinal S9; format: in vitro ADME; conditions: Human, test conc. 3 μM
[11] = Metabolic stability in plasma; format: in vitro ADME, beagle dog; conditions: Dog, test conc. 3 μM
[12] = Metabolic stability in plasma; format: in vitro ADME; conditions: Human, test conc. 3 μM
[13] = Metabolic stability in liver S9; format: in vitro ADME, cynomolgus monkey; conditions: Monkey, test conc. 3 μM
[14] = Metabolic stability in liver S9; format: in vitro ADME; conditions: Human, test conc. 3 μM
[15] = Metabolic stability in plasma; format: in vitro ADME; conditions: cynomolgus, Monkey, test conc. 3 μM
[16] = test system: ESBL-expressing Enterobacteriaceae (n = 33); assay: Broth microdilution MIC, ceftibuten/Compound 2 vs IV comparators; format: cell-based
[17] = test system: AmpC/CMY-expressing Enterobacteriaceae (n = 44); assay: as above; format: cell-based
[18] = test system: OXA-48-expressing Enterobacteriaceae (n = 39); assay: as above
[19] = test system: KPC-expressing Enterobacteriaceae (n = 77); assay: organism not typed; format: cell-based
[20] = Oral dosing formulation in Solutol HS-15:Water, solution/emulsion stability; format: physicochemical
Procedure: (§1) This study included dose concentrations ranging from 2-120 mg/mL.
as §1

[21] = Single ascending dose pharmacokinetics, Solutol HS-15:Water (10:90); format: in vivo, Beagle dogs; conditions: Compound 1 300 mg/kg PO, non-fasted
Procedure: The dosing formulation for Compound 1 was prepared in Solutol HS-15:Water (10:90 v/v) which provided dosing formulations of Compound 1 as a solution (homogeneous and chemically-stable up to a concentration of 30 mg/mL) and as a emulsion (physically- and chemically-stable at concentrations ranging from 31-100 mg/mL) with dose concentrations ranging from 2-60 mg/mL.

[22] = Solutol HS-15:Water (10:90 v/v)
[23] = Solutol HS-15:Water (20:80 v/v)

COCC1=C(C(=O)OC(C)OC(=O)OC(C)C)N2C(=O)[C@@H](NC(=O)/C(=N\OC)c3csc(N)n3)[C@H]2SC1 (stereo partly shown) [Cefpodoxime proxetil]
half-life at 3 μM [1]: 0.6 min | half-life at 3 μM ([2]; CD-1, liver S9): 2.4 min | half-life at 3 μM ([3]; CD-1, intestinal S9): 2.5 min | half-life at 3 μM ([4]; beagle, intestinal S9): > 120 min | half-life at 3 μM ([5]; beagle, liver S9): 4.7 min | half-life at 3 μM ([6]; cynomolgus, intestinal S9): 16.9 min | half-life at 3 μM ([7]; Sprague-Dawley, intestinal S9): 7.4 min | half-life at 3 μM [8]: 0.8 min | half-life at 3 μM ([9]; Sprague-Dawley, liver S9): 10.2 min | half-life at 3 μM ([10]; intestinal S9): 35.6 min | half-life at 3 μM ([11]; beagle, plasma): 26.2 min | half-life at 3 μM ([12]; plasma): 4.8 min | half-life at 3 μM ([13]; cynomolgus, liver S9): 4.3 min | half-life at 3 μM ([14]; liver S9): 3.4 min | half-life at 3 μM [15]: 12.4 min

C[C@@H](O)[C@H]1C(=O)N2C(C(=O)O)=C(S[C@@H]3CN[C@H](C(=O)N(C)C)C3)[C@H](C)[C@H]12 [Meropenem]
Number of strains at MIC value 0.5 mg/L ([16]; ESBL-expressing (n = 33)): 0 | Number of strains at MIC value 1 mg/L ([16]; ESBL-expressing (n = 33)): 1 | Number of strains at MIC value 2 mg/L ([16]; ESBL-expressing (n = 33)): 1 | Number of strains at MIC value 4 mg/L ([16]; ESBL-expressing (n = 33)): 0 | Number of strains at MIC value 8 mg/L ([16]; ESBL-expressing (n = 33)): 1 | Number of strains at MIC value 16 mg/L ([16]; ESBL-expressing (n = 33)): 0 | Number of strains at MIC value […] ([16]; ESBL-expressing (n = 33)): 1 and 0 | Number of strains at MIC value ≤0.06 mg/L ([16]; ESBL-expressing (n = 33)): 29 | Number of strains at MIC value ≥32 mg/L ([16]; ESBL-expressing (n = 33)): 0 | MIC50 ([16]; iv): ≤ 0.06 µg/mL | MIC90 ([16]; iv): 0.125 µg/mL (≈ 0.326 µM) | Number of strains at MIC value 0.5 mg/L ([17]; AmpC/CMY-expressing (n = 44)): 2 | Number of strains at MIC value 1 mg/L ([17]; AmpC/CMY-expressing (n = 44)): 1 | Number of strains at MIC value 2 mg/L ([17]; AmpC/CMY-expressing (n = 44)): 0 | Number of strains at MIC value 4 mg/L ([17]; AmpC/CMY-expressing (n = 44)): 3 | Number of strains at MIC value 8 mg/L ([17]; AmpC/CMY-expressing (n = 44)): 0 | Number of strains at MIC value 16 mg/L ([17]; AmpC/CMY-expressing (n = 44)): 0 | Number of strains at MIC value […] ([17]; AmpC/CMY-expressing (n = 44)): 2 | Number of strains at MIC value ≤0.06 mg/L ([17]; AmpC/CMY-expressing (n = 44)): 34 | Number of strains at MIC value ≥32 mg/L ([17]; AmpC/CMY-expressing (n = 44)): 0 | MIC50 ([17]; iv): ≤ 0.06 µg/mL | MIC90 ([17]; iv): 0.5 µg/mL (≈ 1.3 µM) | MIC50 [18]: 2 µg/mL (≈ 5.22 µM) | MIC90 [18]: 8 µg/mL (≈ 20.9 µM) | Number of strains at MIC value 0.5 mg/L ([19]; KPC-expressing (n = 77)): 1 | Number of strains at MIC value 1 mg/L ([19]; KPC-expressing (n = 77)): 0 | Number of strains at MIC value 2 mg/L ([19]; KPC-expressing (n = 77)): 3 | Number of strains at MIC value 4 mg/L ([19]; KPC-expressing (n = 77)): 4 | Number of strains at MIC value 8 mg/L ([19]; KPC-expressing (n = 77)): 11 | Number of strains at MIC value 16 mg/L ([19]; KPC-expressing (n = 77)): 13 | Number of strains at MIC value […] ([19]; KPC-expressing (n = 77)): 0 | Number of strains at MIC value ≤0.06 mg/L ([19]; KPC-expressing (n = 77)): 1 | Number of strains at MIC value ≥32 mg/L ([19]; KPC-expressing (n = 77)): 44 | MIC50 ([19]; iv): ≥ 32 µg/mL | MIC90 ([19]; iv): ≥ 32 µg/mL

CCC(=O)N[C@H]1Cc2cccc(C(=O)OCOC(=O)C(CC)CC)c2OB1O [Compound 1, ((2-Ethylbutanoyl)oxy)methyl (R)-2-hydroxy-3-propionamido-3,4-dihydro-2H-benzo[e][1,2]oxaborinine-8-carboxylate]
half-life at 3 μM [1]: 4.6 min | Liver S9 Half-life [2]: 1.2 min | Intestinal S9 Half-life [3]: 1.1 min | Intestinal S9 Half-life [4]: 49.0 min | Liver S9 Half-life [5]: 0.5 min | Intestinal S9 Half-life [6]: 11.2 min | Intestinal S9 Half-life [7]: 3.9 min | half-life at 3 μM [8]: 1.6 min | Liver S9 Half-life [9]: 2.3 min | Intestinal S9 Half-life [10]: 2.9 min | Plasma Half-life [11]: 43.9 min | Plasma Half-life [12]: 10.7 min | Liver S9 Half-life [13]: 0.8 min | homogeneous and chemically-stable solution up to a concentration [20, 22]: ≤ 30 mg/mL | physically- and chemically-stable emulsion at concentrations [20, 22]: 31 to 100 mg/mL | homogeneous and chemically-stable solution up to a concentration [20, 23]: ≤ 60 mg/mL | physically- and chemically-stable emulsion at concentrations [20, 23]: 61 to 200 mg/mL | dogs exhibiting emesis [21]: 3 of 4 | Liver S9 Half-life [14]: 1.0 min | half-life at 3 μM [15]: 22 min
